Entries after “also recorded” stand apart in the source; their conditions may differ.
What was measured:
[1] = test system: Helicobacter pylori; test: Chromatogram binding assay: 35S-labeled Helicobacter pylori to glycosphingolipids on thin-layer plates; conditions: for dependence of binding on other lipids or bile salts (Tween 20, deoxycholate) in the thin-layer chromatogram assay: coating buffer with or without detergent (FIG. 1); for binding of Helicobacter pylori to major acid glycosphingolipids of epithelial cells of human stomach: strains 002 and 032, identified tentatively by mobility on thin-layer chromatograms; for binding of Helicobacter pylori in mixtures of reference glycosphingolipids: strain 17875, non-acid fractions of dog small intestine, guinea pig small intestine, mouse faeces (FIG. 1)
[2] = test system: Helicobacter pylori; test: Inhibition of binding on thin-layer chromatograms with soluble oligosaccharides; conditions: for inhibition of binding of Helicobacter pylori to lactotetraosylceramide: 1 h room temperature, strain 17875 (FIG. 5)
Procedure: As a test for possible inhibition of binding by soluble sugars 35S-labeled Helicobacter pylori strains 002 and 032 were incubated for 1 h at room temperature with various concentrations (0.05 mg/ml, 0.1 mg/ml and 0.2 mg/ml) of lactotetraose (Accurate Chem. & Sci. Corp., Westbury, N.Y.) or lactose (J. T. Baker Chem. Co., Phillipsburg, N.J.) in PBS. Thereafter the chromatogram binding assay was performed as described above, using chromatograms with separated gangliotetraosylceramide, lactotetraosylceramide and reference glycosphingolipids.
The ability of soluble oligosaccharides to interfere with the binding of Helicobacter pylori to glycosphingolipids on thin-layer plates was examined by incubating radiolabelled Helicobacter pylori strain 17875 with free lactotetraose (0.1 mg/ml) or lactose (0.2 mg/ml) in PBS for 1 h at room temperature before the chromatogram binding assay of the suspensions. […] The lanes were: Galβ3GalNAcβ4Galβ4Glcβ1Cer (gangliotetraosylceramide), 4 μg (lane 1); Galβ3GlcNAcβ3Galβ4Glcβ1Cer (lactotetraosylceramide), 4 μg (lane 2); Galβ4GlcNAcβ3Galβ4Glcβ1Cer (neolactotetraosylceramide), 4 μg (lane 3). The glycosphingolipids were separated on aluminium-backed silica gel 60 HPTLC plates, using chloroform/methanol/water (60:35:8, by volume) as solvent system, and the binding assay was performed as described under “Materials and Methods”, using 2% BSA and 0.1% Tween 20 in PBS as coating buffer. Autoradiography was for 12 h.

With Galβ3GlcNAcβ3Galβ4Glcβ1Cer [No. 2] the “Helicobacter pylori isolates expressing the lactotetraosylceramide binding capacity” value ([1]; 66 isolates of Table I, lactotetraosylceramide of human meconium) was 86%, the “recognition by sialic acid-binding H. pylori strain CCUG 17874” value ([1]; FIG. 11 B) was “recognised” and the “recognition by H. pylori strain CCUG 17875 devoid of sialic acid binding capacity” value ([1]; FIG. 11 C) was “recognised”. The “effect of bacterial growth conditions on binding” value ([1]; bacteria grown on agar and in broth, for 12 h and for 120 h) was “not affected”, the “dependence of binding on other lipids or bile salts (Tween 20, deoxycholate) in the thin-layer chromatogram assay” value [1] was “only when other lipids or bile salts, such as Tween 20 or deoxycholate, are used” and the “binding by babAlA2 mutant strain” value ([1]; gene coding for the Le^b-binding adhesin inactivated, data not shown) was “Binding”. The “number of Helicobacter pylori isolates expressing the lactotetraosylceramide binding capacity” value ([1]; of 66 isolates of Table I, lactotetraosylceramide of human meconium) was 57.

In the case of sulfatide [reference compound], the “binding of Helicobacter pylori to major acid glycosphingolipids of epithelial cells of human stomach” value (“binding … of human stomach” below) [1] is reported as “No binding; also recorded: non-existent”.

For lactosylceramide [reference compound], the “binding of Helicobacter pylori in mixtures of reference glycosphingolipids” value (from here on “binding … of reference glycosphingolipids”) [1] was “binding”.

“Galβ3GalNAcβ4Galβ4Glcβ1Cer [gangliotetraosylceramide]” was tested, and the “dependence of binding on other lipids or bile salts (Tween 20, deoxycholate) in the thin-layer chromatogram assay” value [1] was “only marginally is affected” and the “binding … of reference glycosphingolipids” value [1] was “binding”.

“NeuAcα3Galβ4Glcβ1Cer [GM3, reference compound]” was tested, and the “binding … of human stomach” value [1] was “No binding” and the “binding … of human stomach” value ([1]; listed as GM3 ganglioside) was “non-existent”.

With `OC[C@H]1O[C@@H](O[C@H]2[C@H](O)[C@@H](O)C(O)O[C@@H]2CO)[C@H](O)[C@@H](O)[C@H]1O` (stereo partly shown) [lactose, reference compound] the “inhibition of binding of Helicobacter pylori to lactotetraosylceramide” value ([2]; bacteria preincubated with 0.2 mg/ml in PBS) was “no inhibitory effect”.

With “maltoheptaose(red) -HDA [reference compound]” the “binding activity with regard to Helicobacter pylori in TLC-overlay assay” value ([1]; 4-hexadecylaniline (HDA) derivatives, compared with lactotetraosylceramide glycosphingolipid) was “totally inactive”.

With `CC(=O)N[C@H]1[C@H](O[C@H]2[C@@H](O)[C@@H](CO)O[C@@H](O[C@H]3[C@H](O)[C@@H](O)C(O)O[C@@H]3CO)[C@@H]2O)O[C@H](CO)[C@@H](O)[C@@H]1O[C@@H]1O[C@H](CO)[C@H](O)[C@H](O)[C@H]1O` (stereo partly shown) [lactotetraose, Galβ3GlcNAcβ3Galβ4Glc] the “inhibition of binding of Helicobacter pylori to lactotetraosylceramide” value ([2]; bacteria preincubated with 0.1 mg/ml in PBS) was “inhibited the binding” and the “blocking of binding of H. pylori to gangliotetraosylceramide” value ([2]; preincubation with soluble oligosaccharide (FIG. 5)) was “able to block binding”.

With “gangliotriaosylceramide [reference compound]” the “binding … of reference glycosphingolipids” value [1] was “binding”.

For Galβ3GlcNAcβ3Galβ4Glcβ1Cer, the “binding activity relative to lactotetraosylceramide from human meconium” value ([1]; ceramide exclusively sphingosine and non-hydroxy 16:0 and 24:0 fatty acids, not shown) was “as active as the lactotetraosylceramide from human meconium”.
